# According to publication PMC4154947, “Polyisoprenylated methylated protein methyl esterase as a putative drug target for androgen-insensitive prostate cancer” (ecancermedicalscience, 2014):
# Experiments:
# [1] = target: T1, Polyisoprenylated methylated protein methyl esterase (PMPMEase; human carboxylesterase 1, hCE1) (Homo sapiens, UniProt P23141); assay: HPLC assay of RD-PNB hydrolysis in prostate cancer cell lysates (PC-3 value); format: biochemical
# T1 construct: gene CES1
# T1 sequence (P23141 18-567): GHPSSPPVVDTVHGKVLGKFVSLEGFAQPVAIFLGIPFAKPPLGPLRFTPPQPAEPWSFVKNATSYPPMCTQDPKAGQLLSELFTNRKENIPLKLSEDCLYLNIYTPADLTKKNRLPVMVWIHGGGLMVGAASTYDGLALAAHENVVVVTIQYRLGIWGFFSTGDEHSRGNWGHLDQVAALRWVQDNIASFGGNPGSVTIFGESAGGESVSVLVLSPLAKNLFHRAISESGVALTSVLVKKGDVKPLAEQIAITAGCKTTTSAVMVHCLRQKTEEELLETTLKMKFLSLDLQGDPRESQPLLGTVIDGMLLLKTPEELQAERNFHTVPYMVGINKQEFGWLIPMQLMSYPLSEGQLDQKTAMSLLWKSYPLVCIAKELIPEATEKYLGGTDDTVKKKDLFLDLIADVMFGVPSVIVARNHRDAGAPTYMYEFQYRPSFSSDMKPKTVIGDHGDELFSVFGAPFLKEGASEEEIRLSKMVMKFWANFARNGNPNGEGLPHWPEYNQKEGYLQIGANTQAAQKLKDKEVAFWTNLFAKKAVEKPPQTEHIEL
# [2] = target: T1, Polyisoprenylated methylated protein methyl esterase (PMPMEase; human carboxylesterase 1, hCE1); assay: HPLC-UV detection of substrate hydrolysis by prostate cell lysates; format: cell-based
Structure (SMILES),IC50 [1] [µM],HPLC-UV detection of substrate hydrolysis by prostate cell lysates [2]
"CC(C)=CCC/C(C)=C/CC/C(C)=C/CSCCS(=O)(=O)F [L-28, 2-trans, trans-farnesylthioethanesulfonyl fluoride]",3,
"COC(=O)[C@H](CSC/C=C(\C)CC/C=C(\C)CCC=C(C)C)NC(=O)c1ccc([N+](=O)[O-])cc1 [RD-PNB, N-(4-nitrobenzoyl)-S-trans, trans-farnesyl-L-cysteine methyl ester]",,"Incubation of the specific PMPMEase substrate, RD-PNB, with lysates from the respective cell lines resulted in the hydrolysis"
